Test results taken from US20100129347A1, “HERPES VIRUS INFECTION INHIBITOR, METHOD FOR INHIBITING INFECTION WITH HERPES VIRUS, AND USE THEREOF” (Osaka University, priority 2007, published 2010).

Tested on: HSV-1
Experiment: HSV-1-GFP infection of human PILR-transfected CHO-K1 cells with acyclovir as control (Example 3), GFP expression 18 hours later
Assay type: cell-based
Conditions: acyclovir 100 μM or 500 μM, or mAb 10 μg/ml, added 30 minutes before virus; FIG. 10
Experimental: HSV-1-GFP of 1.5×10^6 PFU was added to 5×10^4 CHO-K1 cells to which human PILR had been transfected, and expression of GFP was analyzed 18 hours later.
30 minutes before adding the virus, 100 μM or 500 μM of acyclovir, or 10 μg/ml of anti-human PILR mAb (M4) was added, and a ratio of infection with the virus was shown in FIG. 10 with a ratio of infection of cells to which nothing had been added (“control” in FIG. 10) being 100%.

Q: Which “inhibition of infection with HSV (ratio of infection, control = 100%)” value does the source give for `Nc1nc2c(ncn2COCCO)c(=O)[nH]1` [acyclovir] here?
A: did not inhibit infection
